Measurements from PMC6099735, “Piplartine Analogues and Cytotoxic Evaluation against Glioblastoma” (Molecules : A Journal of Synthetic Chemistry and Natural …, 2018).
Converted amounts (≈) assume the structure as drawn.

Tests used:
U87MG cells [1] = test: MTT cell viability assay, cytotoxic activity against proliferation of U87MG cells; assay type: cell-based, human; conditions: for IC50: Homo sapiens, U-87 MG, MTT assay, 48 h exposure, 0.78-50 μg/mL, mean ± SEM of four experiments
Protocol: To evaluate the cytotoxic potential of compounds 2–19 against human U87MG, glioblastoma cells were used with several concentrations (0 to 50 μg/mL). After 48 h of incubation, cell viability rates were established by MTT and LDH analysis. IC50 values of each analogue were determined due to observed cell viability results after MTT assay. All tested analogues led to inhibition of cellular proliferation rates as compared to untreated cells in a clear concentration and compound type dependent manners, as illustrated in Table 1 and Figure 2.
Human glioblastoma (GBM) cell line U87MG (American Type Culture Collection; Rockville, MD, USA) within passage number 15–20 were grown in an incubator at 37 °C in a humidified atmosphere of 5% CO2. They were grown in Eagle’s Minimal Essential Medium from Sigma-Aldrich (Saint Louis, MO, USA), supplemented with 10% fetal bovine serum (FBS) and 100 μg/mL of each of the following antibiotics: penicillin and streptomycin [66].
To examine the effects of compounds on cell viability, an MTT assay was performed. U87MG cells were seeded at 1 × 10^4 cells per well in 96-well plate and allowed to attach for 24 h. Then the cells were exposed to different concentrations of 2–19 (0.78, 1.56, 3.125, 6.25, 12.5, 25 and 50 μg/mL) for 48 h. All the compounds were dissolved in dimethyl sulfoxide (DMSO), and diluted in serum-free culture medium. After the incubation, a 3-(4,5-dimethylthiazol-2-yl)-2,5-diphenyltetrazolium bromide (MTT) solution was applied to cell cultures according to the manufacturer’s instructions (Cayman Chemical Company®, Ann Arbor, MI, USA). After 3 h of incubation, MTT-formazan crystals were dissolved in DMSO and absorbance was measured at 570 nm on a plate reader and compared with control, untreated cells. The half-maximal inhibitory concentration values (IC50) were determined by MTT assay performed in four replicates.

[2] = test system: BF16F10-Nex2 (murine melanoma); design: method as in PMID 25920262; conditions: MTT test; cited from earlier work
[3] = test system: HeLa (human cervical carcinoma); design: method as in PMID 25920262; conditions: MTT test; cited from earlier work
[4] = test system: HL-60 (human leukemic cell); design: method as in PMID 25920262; conditions: MTT test; cited from earlier work
U87MG cells [5] = test: Apoptosis detection by Hoechst 33,258 staining; assay type: cell-based, human; conditions: 48 h at IC50 concentration, compared with control group
Protocol: Cell apoptosis induced by compound 10 was examined by Hoechst 33,258 staining and observed under a fluorescence microscope at 400× magnification.
The control and formulation treated cells were incubated for 48 h and were cultured in six-well cell culture plates for 48 h. after incubation, the medium was removed and the cells were fixed with 4% paraformaldehyde in phosphate buffered saline at 4 °C for 30 min. Following the washing cells three times with phosphate-buffered saline (PBS). The cells were then stained with 1 μL Hoechst 33,258 (5 μg/mL; Sigma-Aldrich, Saint Louis, MO, USA) and incubated at room temperature in the dark for 5 min. Changes in nuclear morphology were visualized under a fluorescent microscope (excitation, 350 nm; emission, 460 nm; Leica® DM IL LED, Wetzlar, Germany).

U87MG cells [6] = test: Total antioxidant capacity (TAC) assay; assay type: cell-based, human; conditions: 48 h, concentrations 0.78 and 50 μg/mL, compared with controls
Protocol: (§1) The total antioxidant capacity (TAC) and the total oxidant status (TOS) levels were evaluated in samples from treated and untreated cultures using colorimetric measurement methods.
(§2) The commercially available kits were purchased from (Rel Assay Diagnostics®, Gaziantep, Turkey) to estimate the level of TAS and TOS. As a summary, the cells were seeded at 10^6 cells/well in 48-well plates, treated with compound 10 as described above. After 48 h incubation, plasma samples of treated and untreated cultures were transferred to a new plate, mixed with reaction solution and incubate for 10 min at room temperature. After that, the absorbance was read spectrophotometrically and the level of TAS and TOS were calculated according to the given equation.

U87MG cells [7] = test: Total oxidant status (TOS) assay; assay type: cell-based, human; conditions: 48 h, all the concentrations
Protocol: as §1, §2

U87MG cells [8] = test: qRT-PCR gene expression, custom plate with 15 cancer pathway genes; assay type: cell-based, human; conditions: IC50 concentration, 48 h
Protocol: To find out the differences in the level of gene expression in U87MG cells exposed using compound 10, a custom plate with 15 different genes involved in cancer related pathways was used via qRT-PCR studies.
Total RNA was isolated from cultured cells using PureLink® RNA Mini Kit (Invitrogen, Carlsbad, MA, USA) following the instructions described by the manufacturer. For quantitative reverse-transcription polymerase chain reaction (qRT-PCR), RNA was reverse-transcribed to cDNA by using a High-Capacity cDNA Reverse Transcription kit (Applied Biosystems, Foster City, CA, USA) according to the manufacturer’s protocol. Real-time PCR analyses were performed using the resulting total cDNA on a TaqMan® custom plate (Applied Biosystems) designed with 15 different genes (EGFR, AKT1, AKT2, NFκB1, NFκB1A, NFκB2, PTEN, KRAS, PIK3CA, PIK3R1, TP53, RAF1, BRAF, DVL1, FOS). Results were normalized to the expression of 18SRNA. qRT-PCR and data collection were performed on 7500 Fast Real-Time PCR (Applied Biosystems). Data analyses were performed using the The Applied Biosystems 7500 Fast System SDS software (Foster City, CA, USA).

[9] = test system: peripheral human whole blood (PHWB) cells; test: Biosafety: MTT cytotoxicity on cultured blood cells; assay type: cell-based; conditions: 0.78 to 50 μg/mL
Protocol: (§3) To evaluate biosafety of 10, its cytotoxic and genotoxic potential were investigated on cultured peripheral human whole blood (PHWB) cells. Firstly, the cytotoxicity testing was performed by MTT and LDH assays. The human blood cells exposed to 0.78 to 50 μg/mL of 10. […] Afterwards, genotoxic potential was assessed by SCE testing and determination of 8-OH-dG.
(§4) Human peripheral blood cells were cultured in order to evaluate the biosafety of 10. To assess the cytotoxicity and genotoxicity potential of 10, MTT, LDH, Sister chromatid exchange (SCE) and 8-hydroxy-2′-deoxyguanosine assays were assessed on cultured blood cells.

[10] = test system: peripheral human whole blood (PHWB) cells; test: Biosafety: LDH cytotoxicity on cultured blood cells; assay type: cell-based; conditions: 0.78 to 50 μg/mL
Protocol: as §3, §4

[11] = test system: peripheral human whole blood (PHWB) cells; test: Sister chromatid exchange (SCE) testing; assay type: cell-based; conditions: 72 h, vs control group
Protocol: as §3
Peripheral blood samples were incubated with 10 (50 μg/mL) at 37 °C for 72 h in culture medium (PB-MAX Karyotyping Medium, Gibco®, Baecelona, Spain) with 5.0 mg/mL of phytohemagglutinin (Sigma Aldrich, Steinheim, Germany). 5-Bromodeoxyuridine (BrdU) (10 μg/mL) was added to cell cultures at initiation. At 1.5 h before harvesting, colcemid (0.5 μg/mL) were added to cells. Then cells were treated with a hypotonic solution (0.075 M KCl), followed by three times fixation step in methanol/acetic acid (3:1, v/v). Cell suspensions were dropped on slides and air-dried. Three days later, the slides were stained according to the fluorescence plus Giemsa (FPG) procedure. Slides were observed under a fluorescence microscope and scores were calculated as SCEs per cell.

[12] = significant = >0.5 fold change vs untreated

| Compound | melting point | IC50 (U87MG cells [1]) | also measured |
| --- | --- | --- | --- |
| CCCOC(=O)/C=C/c1cc(OC)c(OC)c(OC)c1 [Compound 4, (E)-Propyl-3-(3,4,5-trimethoxyphenyl)acrylate] | – | 78.39 ± 0.69 µg/mL (≈ 280 µM) | – |
| COc1cc(/C=C/C(=O)OCCc2ccc(C)cc2)cc(OC)c1OC [Compound 13, (E)-4-Methylphenethyl 3-(3,4,5-Trimethoxyphenyl)acrylate] | – | 30.3 ± 0.35 µg/mL (≈ 85.1 µM) | – |
| COc1cc(/C=C/C(=O)Oc2cc(C(C)C)ccc2C)cc(OC)c1OC [Compound 11, (E)-Carvacryl-3-(3,4,5-trimethoxyphenyl)acrylate] | 145 to 146 °C | 26.7 ± 0.47 µg/mL (≈ 72.1 µM) | – |
| COc1cc(/C=C/C(=O)OCCc2ccccc2)cc(OC)c1OC [Compound 12, (E)-Phenethyl 3-(3,4,5-trimethoxyphenyl)acrylate] | – | 24.8 ± 0.37 µg/mL (≈ 72.4 µM) | – |
| piplaroxide | – | – | cytotoxic activity [2]: moderate activity; cytotoxic activity [3]: moderate activity; cytotoxic activity [4]: moderate activity |
| COc1cc(/C=C/C(=O)OC(C)C)cc(OC)c1OC [Compound 9, (E)-Isopropyl 3-(3,4,5-Trimethoxyphenyl)acrylate] | – | 81.43 ± 0.55 µg/mL (≈ 291 µM) | – |
| COc1cc(/C=C/C(=O)NCc2ccc(Cl)cc2)cc(OC)c1OC [Compound 18, (E)-N-(4-Chlorobenzyl)-3-(3,4,5-trimethoxyphenyl)acrylamide] | 215 to 218 °C | 43.4 ± 0.48 µg/mL (≈ 120 µM) | – |
| COc1ccc(CNC(=O)/C=C/c2cc(OC)c(OC)c(OC)c2)cc1 [Compound 17, (E)-N-(4-Methoxybenzyl)-3-(3,4,5-trimethoxyphenyl)acrylamide] | 225 to 226 °C | 22.7 ± 0.39 µg/mL (≈ 63.4 µM) | – |
| COc1cc(/C=C/C(=O)NCc2ccc(C)cc2)cc(OC)c1OC [Compound 16, (E)-N-(4-Methylbenzyl)-3-(3,4,5-trimethoxyphenyl)acrylamide] | 203 to 205 °C | 22.7 ± 0.34 µg/mL (≈ 66.6 µM) | – |
| CCN(CC)C(=O)/C=C/c1cc(OC)c(OC)c(OC)c1 [Compound 19, (E)-N,N-Diethyl-3-(3,4,5-trimethoxyphenyl)acrylamide] | 197 to 198 °C | 36.1 ± 0.44 µg/mL (≈ 123 µM) | – |
| CC(=O)O[C@H]1C(=O)[C@@]2(C)[C@H]([C@H](OC(=O)c3ccccc3)[C@]3(O)C[C@H](OC(=O)[C@H](O)[C@@H](NC(=O)c4ccccc4)c4ccccc4)C(C)=C1C3(C)C)[C@]1(OC(C)=O)CO[C@@H]1C[C@@H]2O [paclitaxel, reference compound] | – | 2.12 µg/mL (≈ 2.48 µM) | – |
| COc1cc(/C=C/C(=O)OC(c2ccccc2)c2ccccc2)cc(OC)c1OC [Compound 10, (E)-Benzhydryl 3-(3,4,5-trimethoxyphenyl)acrylate] | – | 2.58 ± 0.35 µg/mL (≈ 6.38 µM) | cell viability / cellular proliferation rates (U87MG cells [1]; 0 to 50 μg/mL, 48 h, MTT and LDH analysis, compared to untreated cells): marked concentration-dependent inhibitory effect; apoptosis (nuclear morphology, Hoechst 33,258 staining) (U87MG cells [5]): enhanced chromatin condensation and nuclear fragmentation were detected; total antioxidant capacity (TAC) levels (U87MG cells [6]): significant increase of TAC levels; total oxidant status (TOS) levels (U87MG cells [7]): did not change the TOS levels; gene expression of BRAF, DVL1, EGFR, FOS, KRAS, NF-ĸB1A, RAF1, PIK3CA and PIK3R1 (U87MG cells [8]; <0.5 fold change): slight and insignificant alterations; AKT1 gene expression (U87MG cells [8]; [12]): down-regulated; AKT2 gene expression (U87MG cells [8]; [12]): down-regulated; NF-ĸB1 gene expression (U87MG cells [8]; vs untreated): up-regulated; NF-ĸB2 gene expression (U87MG cells [8]; vs untreated): up-regulated; PTEN gene expression (U87MG cells [8]; vs untreated): up-regulated; TP53 gene expression (U87MG cells [8]; vs untreated): up-regulated; cytotoxicity on blood cells, cell proliferation (MTT assay) [9]: did not lead to any significant (p > 0.05) changes in cell proliferation; cytotoxicity on blood cells, cell proliferation (LDH assay) [10]: did not lead to any significant (p > 0.05) changes in cell proliferation; genotoxicity, frequencies of SCEs [11]: not significant differences in the frequencies of SCEs |
| CCOC(=O)/C=C/c1cc(OC)c(OC)c(OC)c1 [Compound 3, (E)-Ethyl-3-(3,4,5-trimethoxyphenyl)acrylate] | – | 100 ± 1.12 µg/mL (≈ 376 µM) | – |
| COc1cc(/C=C/C(=O)NCc2ccccc2)cc(OC)c1OC [Compound 15, (E)-N-Benzyl-3-(3,4,5-trimethoxyphenyl)acrylamide] | – | 33.1 ± 0.41 µg/mL (≈ 101 µM) | – |

Further lines, with some results ahead:

| melting point | Compound | IC50 (U87MG cells [1]) | also measured |
| --- | --- | --- | --- |
| 135 to 136 °C | COC(=O)/C=C/c1cc(OC)c(OC)c(OC)c1 [Compound 2, (E)-Methyl-3-(3,4,5-trimethoxyphenyl)acrylate] | 85.13 ± 0.78 µg/mL (≈ 337 µM) | – |
| 60 to 62 °C | COCCOC(=O)/C=C/c1cc(OC)c(OC)c(OC)c1 [Compound 8, (E)-2-Methoxyethyl-3-(3,4,5-trimethoxyphenyl)acrylate] | 50.1 ± 0.62 µg/mL (≈ 169 µM) | – |
| 37 to 38 °C | CCCCCCCCCCOC(=O)/C=C/c1cc(OC)c(OC)c(OC)c1 [Compound 7, (E)-Decyl-3-(3,4,5-trimethoxyphenyl)acrylate] | 34.9 ± 0.54 µg/mL (≈ 92.3 µM) | – |
| 105 to 106 °C | CCCCCOC(=O)/C=C/c1cc(OC)c(OC)c(OC)c1 [Compound 6, (E)-Pentyl 3-(3,4,5-trimethoxyphenyl)acrylate] | 31.7 ± 0.48 µg/mL (≈ 103 µM) | – |
| 74 to 75 °C | CCCCOC(=O)/C=C/c1cc(OC)c(OC)c(OC)c1 [Compound 5, (E)-Butyl-3-(3,4,5-trimethoxyphenyl)acrylate] | 57.9 ± 0.71 µg/mL (≈ 197 µM) | – |
| 225 to 226 °C | CCCCNC(=O)/C=C/c1cc(OC)c(OC)c(OC)c1 [Compound 14, (E)-N-Butyl-3-(3,4,5-trimethoxyphenyl)acrylamide] | 13.2 ± 0.32 µg/mL (≈ 45 µM) | – |
